Results published in ChEMBL document CHEMBL4837202, “Design, synthesis of novel celastrol derivatives and study on their antitumor growth through HIF-1α pathway” (Eur J Med Chem, 2021).
In brackets after ≈: the same amount, converted by molar mass. Activity calls are given as the source filed them. The rule behind the calls is not given here.

What was measured:
[1] = system: Hep 3B2; experiment: Cytotoxicity against human Hep3B cells assessed as reduction in cell viability incubated for 24 hrs under normaxic condition by MTT assay; assay type: cell-based
[2] = Solubility of the compound in water measured by UV-Visible spectral analysis; assay type: physicochemical
[3] = system: Hep 3B2; experiment: Inhibition of hypoxia-induced HIF1alpha protein expression in human Hep3B cells incubated for 12 hrs in presence of 1% O2 under hypoxic condition by Western blot analysis; assay type: functional, cell-based; details: dose 1-10 µM
[4] = system: Hep 3B2; experiment: Antiproliferative activity against human Hep3B cells assessed as reduction in colony formation incubated for 7 days by crystal violet staining based assay; assay type: functional, cell-based; details: dose 1-10 µM, time 7.0 day
[5] = system: Hep 3B2; experiment: Inhibition of cell migration in human Hep3B cells at incubated for 24 hrs by scratch wound healing assay; assay type: functional, cell-based; details: dose 1-10 µM
[6] = system: Hep 3B2; experiment: Inhibition of cell migration in human Hep3B cells at incubated for 48 hrs by scratch wound healing assay; assay type: functional, cell-based; details: dose 1-10 µM
[7] = system: Hep 3B2; experiment: Induction of apoptosis in human Hep3B cells assessed as early apoptotic cells at 1 uM incubated for 24 hrs by PI and annexin V-FITC staining based flow cytometry (reference value: 1.2%); assay type: functional
[8] = system: Hep 3B2; experiment: Induction of apoptosis in human Hep3B cells assessed as late apoptotic cells at 1 uM incubated for 24 hrs by PI and annexin V-FITC staining based flow cytometry (reference value: 1.6%); assay type: functional
[9] = system: Hep 3B2; experiment: Induction of apoptosis in human Hep3B cells assessed as necrotic cells at 1 uM incubated for 24 hrs by PI and annexin V-FITC staining based flow cytometry (reference value: 0.1%); assay type: functional
[10] = system: Hep 3B2; experiment: Induction of apoptosis in human Hep3B cells assessed as viable cells at 1 uM incubated for 24 hrs by PI and annexin V-FITC staining based flow cytometry (reference value: 97.0%); assay type: functional; details: read-out: Activity
[11] = system: Hep 3B2; experiment: Induction of apoptosis in human Hep3B cells assessed as early apoptotic cells at 3 uM incubated for 24 hrs by PI and annexin V-FITC staining based flow cytometry (reference value: 1.2%); assay type: functional
[12] = system: Hep 3B2; experiment: Induction of apoptosis in human Hep3B cells assessed as late apoptotic cells at 3 uM incubated for 24 hrs by PI and annexin V-FITC staining based flow cytometry (reference value: 1.6%); assay type: functional
[13] = system: Hep 3B2; experiment: Induction of apoptosis in human Hep3B cells assessed as necrotic cells at 3 uM incubated for 24 hrs by PI and annexin V-FITC staining based flow cytometry (reference value: 0.1%); assay type: functional
[14] = system: Hep 3B2; experiment: Induction of apoptosis in human Hep3B cells assessed as viable cells at 3 uM incubated for 24 hrs by PI and annexin V-FITC staining based flow cytometry (reference value: 97.0%); assay type: functional; details: read-out: Activity
[15] = system: Hep 3B2; experiment: Induction of apoptosis in human Hep3B cells assessed as early apoptotic cells at 10 uM incubated for 24 hrs by PI and annexin V-FITC staining based flow cytometry (reference value: 1.2%); assay type: functional
[16] = system: Hep 3B2; experiment: Induction of apoptosis in human Hep3B cells assessed as late apoptotic cells at 10 uM incubated for 24 hrs by PI and annexin V-FITC staining based flow cytometry (reference value: 1.6%); assay type: functional
[17] = system: Hep 3B2; experiment: Induction of apoptosis in human Hep3B cells assessed as necrotic cells at 10 uM incubated for 24 hrs by PI and annexin V-FITC staining based flow cytometry (reference value: 0.1%); assay type: functional
[18] = system: Hep 3B2; experiment: Induction of apoptosis in human Hep3B cells assessed as viable cells at 10 uM incubated for 24 hrs by PI and annexin V-FITC staining based flow cytometry (reference value: 97.0%); assay type: functional; details: read-out: Activity
[19] = system: HCT-116; experiment: Antitumour activity against human HCT-116 cells xenografted in nude BALB/c mouse assessed as tumour growth inhibition at 5 mg/kg, ip administered for 20 days relative to control; assay type: functional; set-up: scale not given: the % may be the effect or the level left; details: time 20 day
[20] = system: HCT-116; experiment: Antitumour activity against human HCT-116 cells xenografted in nude BALB/c mouse assessed as tumour growth inhibition at 10 mg/kg, ip administered for 20 days relative to control; assay type: functional; set-up: scale not given: the % may be the effect or the level left; details: time 20 day
[21] = Toxicity in BALB/c mouse xenografted […] HCT-116 cells assessed as effect on body weight at 5 mg/kg, ip administered every day measured after 21 days; assay type: organism-based; details: in vivo, 504 h, time 21 day
[22] = Toxicity in BALB/c mouse xenografted […] HCT-116 cells assessed as effect on body weight at 10 mg/kg, ip administered every day measured after 21 days; assay type: organism-based; details: in vivo, 504 h, time 21 day
[23] = system: HCT-116; experiment: Antitumour activity against human HCT-116 cells xenografted BALB/c mouse with assessed as morphological changes in tumour tissue at 5 mg/kg, ip administered every day measured after 21 days H and E staining based optical microscopic method; assay type: functional, organism-based; details: time 21.0 day
[24] = system: HCT-116; experiment: Antitumour activity against human HCT-116 cells xenografted BALB/c mouse with assessed as morphological changes in tumour tissue at 10 mg/kg, ip administered every day measured after 21 days H and E staining based optical microscopic method; assay type: functional, organism-based; details: time 21.0 day

## CC1=C(O)C(=O)C=C2C1=CC=C1[C@@]2(C)CC[C@@]2(C)[C@@H]3C[C@](C)(C(=O)OCC(=O)NCc4cn(-c5ccc(Cl)c(Cl)c5)nn4)CC[C@]3(C)CC[C@]12C
[1]
  IC50: 2450 nM

## CC1=C(O)C(=O)C=C2C1=CC=C1[C@@]2(C)CC[C@@]2(C)[C@@H]3C[C@](C)(C(=O)OCC(=O)Nc4ccncc4)CC[C@]3(C)CC[C@]12C
[1]
  IC50: 234000 nM

## CCOP(=O)(OCC)C(NC(=O)COC(=O)[C@]1(C)CC[C@]2(C)CC[C@]3(C)C4=CC=C5C(=CC(=O)C(O)=C5C)[C@]4(C)CC[C@@]3(C)[C@@H]2C1)c1ccc(F)cc1 (some centres not stated)
[1]
  IC50: 2330 nM

## CCOP(=O)(OCC)C(NC(=O)COC(=O)[C@]1(C)CC[C@]2(C)CC[C@]3(C)C4=CC=C5C(=CC(=O)C(O)=C5C)[C@]4(C)CC[C@@]3(C)[C@@H]2C1)c1ccc(OC)cc1 (some centres not stated)
[1]
  IC50: 1480 nM

## CCOP(=O)(OCC)C(NC(=O)COC(=O)[C@]1(C)CC[C@]2(C)CC[C@]3(C)C4=CC=C5C(=CC(=O)C(O)=C5C)[C@]4(C)CC[C@@]3(C)[C@@H]2C1)c1ccc(C)cc1 (some centres not stated)
[1]
  IC50: 4550 nM

## CC1=C(O)C(=O)C=C2C1=CC=C1[C@@]2(C)CC[C@@]2(C)[C@@H]3C[C@](C)(C(=O)OCC(=O)NCc4cn(-c5ccc(Cl)cc5)nn4)CC[C@]3(C)CC[C@]12C
[1]
  IC50: 21900 nM

## CC1=C(O)C(=O)C=C2C1=CC=C1[C@@]2(C)CC[C@@]2(C)[C@@H]3C[C@](C)(C(=O)OCCOc4cnc5ccccc5c4)CC[C@]3(C)CC[C@]12C
[2]
  solubility: 28.1 µg/mL (≈ 45.2 µM)
[1]
  IC50: 16800 nM
[3]
  Activity: Dose-Dependent Effect
[4]
  Activity: Dose-Dependent Effect
[5]
  inhibition: Dose-Dependent Effect
[6]
  inhibition: Dose-Dependent Effect
[7]
  Activity: 1.9%
[8]
  Activity: 1.4%
[9]
  Activity: 0.2%
[10]
  viability at 1 µM: 96.6%
[11]
  Activity: 1.9%
[12]
  Activity: 2%
[13]
  Activity: 0%
[14]
  viability at 3 µM: 96.1%
[15]
  Activity: 6.2%
[16]
  Activity: 5.7%
[17]
  Activity: 0.2%
[18]
  viability at 10 µM: 87.9%
[19]
  Activity: 60.38%
[20]
  Activity: 74.3%
[21]
  Activity: Non-Toxic
[22]
  Activity: Non-Toxic
[23]
  Activity: Active
[24]
  Activity: Active

## COc1ccc(-n2cc(CNC(=O)COC(=O)[C@]3(C)CC[C@]4(C)CC[C@]5(C)C6=CC=C7C(=CC(=O)C(O)=C7C)[C@]6(C)CC[C@@]5(C)[C@@H]4C3)nn2)cc1
[1]
  IC50: 9110 nM

## CC1=C(O)C(=O)C=C2C1=CC=C1[C@@]2(C)CC[C@@]2(C)[C@@H]3C[C@](C)(C(=O)OCCOc4cc(=O)oc5ccccc45)CC[C@]3(C)CC[C@]12C
[1]
  IC50: 134000 nM

## CC1=C(O)C(=O)C=C2C1=CC=C1[C@@]2(C)CC[C@@]2(C)[C@@H]3C[C@](C)(C(=O)OCC(=O)Nc4ccnc5ccccc45)CC[C@]3(C)CC[C@]12C
[1]
  IC50: 4000 nM

## CCOP(=O)(OCC)C(NC(=O)COC(=O)[C@]1(C)CC[C@]2(C)CC[C@]3(C)C4=CC=C5C(=CC(=O)C(O)=C5C)[C@]4(C)CC[C@@]3(C)[C@@H]2C1)c1ccccc1 (some centres not stated)
[1]
  IC50: 1170 nM

## CC1=C(O)C(=O)C=C2C1=CC=C1[C@@]2(C)CC[C@@]2(C)[C@@H]3C[C@](C)(C(=O)OCC(=O)Nc4ccc(F)cn4)CC[C@]3(C)CC[C@]12C
[1]
  IC50: 1260 nM

## CC1=C(O)C(=O)C=C2C1=CC=C1[C@@]2(C)CC[C@@]2(C)[C@@H]3C[C@](C)(C(=O)OCC(=O)Nc4cccc5ncccc45)CC[C@]3(C)CC[C@]12C
[1]
  IC50: 1110 nM

## CC1=C(O)C(=O)C=C2C1=CC=C1[C@@]2(C)CC[C@@]2(C)[C@@H]3C[C@](C)(C(=O)OCC(=O)Nc4ccc5ncccc5c4)CC[C@]3(C)CC[C@]12C
[1]
  IC50: 2910 nM

## CC1=C(O)C(=O)C=C2C1=CC=C1[C@@]2(C)CC[C@@]2(C)[C@@H]3C[C@](C)(C(=O)O)CC[C@]3(C)CC[C@]12C [CELASTROL]
[2]
  solubility: 38.2 µg/mL (≈ 84.8 µM)
[1]
  IC50: 760 nM

## CC1=C(O)C(=O)C=C2C1=CC=C1[C@@]2(C)CC[C@@]2(C)[C@@H]3C[C@](C)(C(=O)OCCOc4ccc5ccc(=O)oc5c4)CC[C@]3(C)CC[C@]12C
[1]
  IC50: 2450 nM

## CC1=C(O)C(=O)C=C2C1=CC=C1[C@@]2(C)CC[C@@]2(C)[C@@H]3C[C@](C)(C(=O)OCCOc4ccc5cccnc5c4)CC[C@]3(C)CC[C@]12C
[1]
  IC50: 5270 nM

## CC1=C(O)C(=O)C=C2C1=CC=C1[C@@]2(C)CC[C@@]2(C)[C@@H]3C[C@](C)(C(=O)OCC(=O)NCc4cn(-c5ccc(C)cc5)nn4)CC[C@]3(C)CC[C@]12C
[1]
  IC50: 2720 nM

## CC1=C(O)C(=O)C=C2C1=CC=C1[C@@]2(C)CC[C@@]2(C)[C@@H]3C[C@](C)(C(=O)OCC(=O)Nc4cc(C)on4)CC[C@]3(C)CC[C@]12C
[1]
  IC50: 3070 nM

## CC1=C(O)C(=O)C=C2C1=CC=C1[C@@]2(C)CC[C@@]2(C)[C@@H]3C[C@](C)(C(=O)OCCOc4cc(C)oc(=O)c4)CC[C@]3(C)CC[C@]12C
[1]
  IC50: 1160 nM

## CC1=C(O)C(=O)C=C2C1=CC=C1[C@@]2(C)CC[C@@]2(C)[C@@H]3C[C@](C)(C(=O)OCC(=O)Nc4ccc(F)nc4)CC[C@]3(C)CC[C@]12C
[1]
  IC50: 4210 nM

## CC1=C(O)C(=O)C=C2C1=CC=C1[C@@]2(C)CC[C@@]2(C)[C@@H]3C[C@](C)(C(=O)OCCOc4cccc5ncccc45)CC[C@]3(C)CC[C@]12C
[1]
  IC50: 14400 nM

## CC1=C(O)C(=O)C=C2C1=CC=C1[C@@]2(C)CC[C@@]2(C)[C@@H]3C[C@](C)(C(=O)OCC(=O)Nc4cccc5cccnc45)CC[C@]3(C)CC[C@]12C
[1]
  IC50: 1690 nM

## CC1=C(O)C(=O)C=C2C1=CC=C1[C@@]2(C)CC[C@@]2(C)[C@@H]3C[C@](C)(C(=O)OCC(=O)Nc4cnc5ccccc5c4)CC[C@]3(C)CC[C@]12C
[1]
  IC50: 1040 nM

## O=c1[nH]cc(F)c(=O)[nH]1 [FLUOROURACIL]
[20]
  Activity: 59.58%
[22]
  Activity: Non-Toxic
[24]
  Activity: Active

## CC1=C(O)C(=O)C=C2C1=CC=C1[C@@]2(C)CC[C@@]2(C)[C@@H]3C[C@](C)(C(=O)OCC(=O)NCc4cn(-c5ccccc5)nn4)CC[C@]3(C)CC[C@]12C
[1]
  IC50: 1160 nM
